Data set [1] is described as follows: Catalytic activity of GPx mimetics: reduction of hydrogen peroxide with benzyl thiol. How it is done:
(§1) Catalytic activity of the compounds described herein can be determined via assessing the reduction of tert-butyl hydroxyperoxide and hydrogen peroxide with benzyl thiol for example as described in Example 1, herein. According to this embodiment, catalytic activity was compared by means of reaction half-life (t1/2), where the value reflects the time required to oxidize half of the thiol to its disulfide.
(§2) Diselenide 17, selenide 20 and spirodioxyselenurane 25 were prepared by literature procedures. NMR spectra were run in CDCl3 unless otherwise indicated. Chemical shifts for ^77Se and ^125Te NMR spectra are reported relative to dimethyl selenide and dimethyl telluride, respectively (δ 0.00). The spectra were recorded by using diphenyl diselenide in CDCl3 (δ 463 ppm) or selenium dioxide in D2O (δ 1302.6 ppm) for ^77Se NMR spectra, and diphenyl ditelluride in CDCl3 (δ 420.8 ppm) for ^125Te NMR spectra. Benzyl thiol was distilled prior to use and the concentrations of tert-butyl hydroperoxide and hydrogen peroxide were determined by iodometric analysis.
(§3) Glassware used in the measurement of catalytic activity (Example 9) was washed only with water followed by acetone, and was flame-dried prior to use. Contamination with traces of detergent or alkali produced abnormal kinetic results.
(§4) Catalytic activity of some of the compounds synthesized as described the foregoing Examples are described in the tables below, where the activity measured is in terms of comparability to selenoenzyme glutathione peroxidase. Reactions were performed with BnSH (0.029 M), the catalyst (0.0029 M) and either 56% TBHP (0.038 M), 38% TBHP (0.023 M) or 29% H2O2(0.040 M) in CH2Cl2-MeOH (95:5) at 18° C., except for entries 7, 8, 17 and 18, where the solvent was CH2Cl2-MeOH (4:1).

Data set [2] is described as follows: Catalytic activity of GPx mimetics: overall comparison of catalysts in words (both oxidants). The conditions noted are these: reduction of peroxides with BnSH; for catalytic activity compared to their selenium analogs 14 and 16: fastest reaction rates.
Source text: as §1, §4
In general, hydrogen peroxide was reduced faster than tert-butyl hydroperoxide in the presence of the selenium-based catalysts.

A short description of data set [3]: Catalytic activity of GPx mimetics: reduction of tert-butyl hydroperoxide with benzyl thiol. How it is done:
as §1, §2, §3, §4

Twelve molecules from US7923442B2, “Glutathione peroxidase mimetics and uses thereof” (UTI Limited Partnership, priority 2005, dated 2011) can be followed below.

For orientation: melting point means the temperature of the solid-liquid transition.

For `O=[Se]1CCCO1` (stereo not drawn) [Compound 14, reference compound], the “t1/2 (h), time required to oxidize half of the thiol to its disulfide” value (shortened to “t1/2 (h), time required to oxidize half”) in data set [1] is on record as 18 h.

Regarding `C1CO[Se]2(C1)CCCO2` [Compound 16, reference compound], the “t1/2 (h), time required to oxidize half” value in data set [1] came to 0.2 h.

In the case of `O=[Se]1OCc2ccccc21` (stereo not drawn) [Compound 19, Benzo-1,2-oxaselenolane Se-Oxide], the “t1/2 (h), time required to oxidize half” value in data set [1] worked out at 18 h; in data set [3], 162 h. For the same molecule, in data set [2], the “catalytic activity compared to the parent cyclic seleninate ester 14 and spirodioxyselenurane 16” value is “inferior catalysts”.

Regarding `O=C1O[Se](=O)c2ccccc21` (stereo not drawn) [Compound 22, Benzo-3-oxo-1,2-Oxaselenolane Se-Oxide], the “t1/2 (h), time required to oxidize half” value in data set [1] is listed as 73 h; in data set [3], 252 h. In addition, the “catalytic activity compared to the parent cyclic seleninate ester 14 and spirodioxyselenurane 16” value in data set [2] is “inferior catalysts”.

`c1ccc2c(c1)CO[Se]21OCc2ccccc21` [Compound 24, Spirodioxyselenurane]: the results for the “t1/2 (h), time required to oxidize half” value in data set [1] and in data set [3] were 5.5 h and 62 h, respectively. Also, the “catalytic activity compared to the parent cyclic seleninate ester 14 and spirodioxyselenurane 16” value in data set [2] is on record as “inferior catalysts”.

Regarding `O=C1O[Se]2(OC(=O)c3ccccc32)c2ccccc21` [Compound 25, Spirodioxyselenurane, reference compound], the “t1/2 (h), time required to oxidize half” value came to 35 h in data set [1] and 113 h in data set [3]. Moreover, in data set [2], the “catalytic activity compared to the parent cyclic seleninate ester 14 and spirodioxyselenurane 16” value is reported as “inferior catalysts”.

With `O=[Te]1CCCO1` [Compound 27, 1,2-Oxatellurolane Te-oxide], the “catalytic activity compared to their selenium analogs 14 and 16” value in data set [2] was “superior catalysts”.

Regarding `C1CO[Te]2(C1)CCCO2` [Compound 29, Spirodioxytellurane], in data set [2], the “catalytic activity compared to their selenium analogs 14 and 16” value is on record as “superior catalysts”.

Regarding `COc1ccc2c(c1)CO[Se]2=O` (stereo not drawn) [Compound 91, 5-metboxybenzo-1,2-oxaselenolane Se-oxide], the “t1/2 (h), time required to oxidize half” value worked out at 28 h in data set [1] and 81 h in data set [3].

Consider `O=[Se]1OCc2cc(F)ccc21` (stereo not drawn) [Compound 93, 5-fluorobenzo-1,2-oxaselenolane Se-oxide], for which the melting point fell in the range of 141 to 142 °C. For the same molecule, the “t1/2 (h), time required to oxidize half” value in data set [1] amounted to 39 h. In addition, the “t1/2 (h), time required to oxidize half” value in data set [3] is 238 h.

In turn, `COc1ccc2c(c1)CO[Se]21OCc2cc(OC)ccc21` [Compound 126, spirodioxyselenurane] displayed a melting point of 171 to 173 °C. Moreover, the “t1/2 (h), time required to oxidize half” value in data set [1] came to 3.3 h. In addition, in data set [3], the “t1/2 (h), time required to oxidize half” value came to 39 h.

`Fc1ccc2c(c1)CO[Se]21OCc2cc(F)ccc21` [Compound 127, spirodioxyselenurane] registered a melting point of 189 to 191 °C. Also, in data set [1], the “t1/2 (h), time required to oxidize half” value is on record as 16 h. Besides, the “t1/2 (h), time required to oxidize half” value in data set [3] came to 181 h.
